Where “and” joins values, the source holds several entries; their conditions need not be identical. Identical values can stand only once. Entries after “also recorded” stand apart in the source; their conditions may differ.
Experiments:
recombinant WT VCP [1] = target: T1, recombinant WT VCP (Mus musculus, UniProt Q01853); test: Kinase-Glo ATPase assay, recombinant WT VCP; assay type: biochemical; settings: for ATP consumed: WT VCP no UN
T1 construct: in the full-length recombinant VCP; His (N); made in house; host or cells: Escherichia coli BL21-CodonPlus (DE3)-RIL
T1 sequence (Q01853 whole entry): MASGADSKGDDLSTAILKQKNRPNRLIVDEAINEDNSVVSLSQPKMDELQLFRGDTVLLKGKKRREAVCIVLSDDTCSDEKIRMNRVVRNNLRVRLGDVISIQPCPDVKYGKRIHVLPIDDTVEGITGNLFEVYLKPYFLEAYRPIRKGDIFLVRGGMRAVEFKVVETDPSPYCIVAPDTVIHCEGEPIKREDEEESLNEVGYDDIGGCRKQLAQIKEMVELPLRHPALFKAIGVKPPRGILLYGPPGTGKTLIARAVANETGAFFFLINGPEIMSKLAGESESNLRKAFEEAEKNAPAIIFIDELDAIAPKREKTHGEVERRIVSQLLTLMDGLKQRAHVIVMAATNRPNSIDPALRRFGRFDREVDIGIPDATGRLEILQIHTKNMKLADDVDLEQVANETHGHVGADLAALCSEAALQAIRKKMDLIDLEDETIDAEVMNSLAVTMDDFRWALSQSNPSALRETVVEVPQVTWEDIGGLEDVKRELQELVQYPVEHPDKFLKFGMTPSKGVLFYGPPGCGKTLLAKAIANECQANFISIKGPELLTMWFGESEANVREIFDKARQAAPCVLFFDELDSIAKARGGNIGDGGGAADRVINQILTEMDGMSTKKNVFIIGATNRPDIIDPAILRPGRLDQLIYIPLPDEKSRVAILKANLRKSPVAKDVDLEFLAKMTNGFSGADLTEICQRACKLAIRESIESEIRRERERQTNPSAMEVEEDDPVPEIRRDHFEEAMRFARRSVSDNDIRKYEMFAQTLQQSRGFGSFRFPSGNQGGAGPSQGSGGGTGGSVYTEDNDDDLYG
Method: (§1) Experiments with varied activator concentration and screening were measured using the Kinase-Glo Luminescent Kinase Assay (Promega). Reactions were incubated at 25°C for 1 hour then reduced to 4°C in a thermocycler consisting of 50 nM of recombinant VCP with or without 50 nM UFD1/NPLOC4 in 50 uL ATPase buffer (25 mM HEPES, pH 7.5, 100 mM NaCl, 10 mM MgCl2) at 2% DMSO with 62.5 μM ATP and a range of activator concentrations (Gibco, Sigma-Aldrich). Equal volumes of reaction and Kinase-Glo reagent were incubated for 20 minutes at room temperature in a 96 well white flat bottom plate (Corning). Luminescence was measured in a microplate reader (Spark 20M, Tecan).
(§2) Experiments with varied compound concentration were fit to a 3-parameter dose curve with asymmetric profile likelihood 95% confidence intervals in GraphPad Prism 9 (GraphPad). Experiments with varied ATP concentration were fit to a Michaelis-Menten model with asymmetric profile likelihood 95% confidence intervals. Significance was determined for experiments with fixed compound or fixed ATP concentration using a linear mixed-effects model.

WT VCP + Ufd1/Nploc4 = target: T2, WT VCP + Ufd1/Nploc4 (Mus musculus, UniProt Q01853); test: Kinase-Glo ATPase assay, WT VCP with UFD1/NPLOC4 (UN); assay type: biochemical; settings: for ATP consumed: WT VCP with UN
T2 construct: in the full-length recombinant VCP; His (N); made in house; host or cells: E. coli (VCP: BL21-CodonPlus (DE3)-RIL; UFD1 and NPLOC4: E. coli (DE3), purified by the MD Anderson core)
T2 sequence (Q01853 whole entry): as above
T2 sequence (Q92890 whole entry partner): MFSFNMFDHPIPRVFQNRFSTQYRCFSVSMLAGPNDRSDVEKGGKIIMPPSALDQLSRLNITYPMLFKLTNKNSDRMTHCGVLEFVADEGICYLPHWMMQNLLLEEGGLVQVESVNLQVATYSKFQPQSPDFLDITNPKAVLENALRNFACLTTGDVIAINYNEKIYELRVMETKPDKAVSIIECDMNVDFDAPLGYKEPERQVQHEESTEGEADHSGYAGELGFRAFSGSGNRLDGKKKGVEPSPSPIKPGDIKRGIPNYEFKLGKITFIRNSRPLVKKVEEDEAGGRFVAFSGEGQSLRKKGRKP
T2 sequence (Q8TAT6 whole entry partner): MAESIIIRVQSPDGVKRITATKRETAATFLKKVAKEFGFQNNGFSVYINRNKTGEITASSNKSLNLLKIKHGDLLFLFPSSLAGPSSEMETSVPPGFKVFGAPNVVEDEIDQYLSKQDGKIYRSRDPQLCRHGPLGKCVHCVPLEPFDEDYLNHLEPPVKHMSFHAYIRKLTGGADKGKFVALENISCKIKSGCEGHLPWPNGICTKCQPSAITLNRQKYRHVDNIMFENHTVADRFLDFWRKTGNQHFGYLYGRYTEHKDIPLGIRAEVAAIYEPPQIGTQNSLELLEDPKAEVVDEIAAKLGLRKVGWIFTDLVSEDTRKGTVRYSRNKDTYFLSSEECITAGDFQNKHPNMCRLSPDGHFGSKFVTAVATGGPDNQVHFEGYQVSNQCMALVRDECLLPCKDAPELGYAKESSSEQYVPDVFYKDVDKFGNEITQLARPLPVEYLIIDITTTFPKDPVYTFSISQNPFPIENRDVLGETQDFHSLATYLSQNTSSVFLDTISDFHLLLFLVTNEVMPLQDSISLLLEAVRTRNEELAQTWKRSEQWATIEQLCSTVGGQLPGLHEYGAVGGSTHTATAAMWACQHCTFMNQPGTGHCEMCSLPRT
Method: as §1, §2

recombinant WT VCP [2] = target: T1, recombinant WT VCP; test: MESG-PNP (EnzCheck) phosphate release ATPase assay, WT VCP; assay type: biochemical; settings: for ATPase activity v0/ET: 25 μM compound, replicate experiments
Method: (§3) All other experiments were performed using the EnzCheck phosphatase assay kit (Molecular Probes). ATPase activity was measured in a 96-well flat bottom plate (Thermo Fisher Scientific). 50 nM VCP was incubated in 100 μL ATPase buffer with 2% DMSO with 25 μM compound and various ATP concentrations. The absorbance at 360 ± 5 nm was measured for more than 15 minutes at 25°C. Phosphate release was quantified based on a phosphate standard curve performed on the same plate. Initial enzyme velocity was determined by fitting the linear portion of the data to a linear regression model.
as §2

26S proteasome = 26S proteasome activity, Suc-LLVY-AMC fluorescence; assay type: biochemical, human; settings: 25 μM compound, versus 1% DMSO
Method: 26S proteasome and substrate suc-LLVY-AMC were purchased (LifeSensors, Inc.). Fluorescence was measured in a microplate reader using a 96-well optical bottom black plate (Thermo Fisher Scientific). […] 26S proteasome was incubated in 100 μL proteasome buffer (20 mM HEPES, pH 7.5, 0.5 mM EDTA, 0.05% Triton-X) with 100 μM suc-LLVY-AMC, 1 mM ATP, and 25 μM compound or 1% DMSO. Fluorescence was measured at excitation 380 ± 10nm and emission 460 ± 10nm for more than 15 minutes at 37°C. Initial velocity was determined by fitting the linear portion of the data to a linear regression model. Significance was determined for using a linear mixed-effects model.

[3] = test system: WT HeLa cells expressing GFP-TDP-4FL; test: Flow cytometry of GFP-TDP-4FL integrated fluorescence, WT HeLa; assay type: cell-based; settings: for Integrated Fluorescence WT (Normalized to CHX): replicate values
Method: Drug treatments were performed on neurons 7 days after lentiviral transduction and 14 days after neuronal induction. HeLa cells were collected using trypsin and pelleted at 1000g for 3 minutes. Cell pellets were resuspended in colorless DMEM (Invitrogen) supplemented with 2% FBS and filtered through a BD tube with cell strainer (BD Biosciences) for flow cytometry analysis on LSR II (BD Biosciences). Data analysis was performed on FlowJo v10 software. Integrated fluorescence intensity was determined by multiplying percent positive GFP and GFP median fluorescence values.

luciferase = test: Luciferase counter assay: Kinase-Glo with 62.5 μM ATP without recombinant VCP; assay type: biochemical; settings: for measured ATP consumed (nmol) without VCP: replicate values
Method: as §1
(A-D) Measured ATP as determined by a Kinase-Glo assay of 62.5μM ATP in the presence of increasing concentrations of compound without recombinant VCP present. (for all panels: n=3 with 4 technical replicates per experiment, points are expressed as beta ± SE, linear mixed effects model, P>0.05 for each […]
(1 picture or pasted object on this page, not shown here)

A232E VCP = target: T3, A232E VCP (Mus musculus, UniProt Q01853, A232E); test: MESG-PNP ATPase assay, recombinant A232E VCP; assay type: biochemical; settings: VCP Mutation A232E; replicate values
T3 construct: in the full-length recombinant VCP; His (N); made in house; host or cells: Escherichia coli BL21-CodonPlus (DE3)-RIL
T3 sequence (Q01853 whole entry A232E): as the sequence (Q01853 whole entry) above, with A232E counted along it
Method: as §3
(§4) Figure S8. VCP activators variable effect on ATPase activity of MSP associated mutations in recombinant VCP. ATPase activity of 50 nM recombinant VCP protein was measured using an MESG-PNP assay upon treatment with 25 μM compound versus 2% DMSO control at 1mM ATP for WT (also shown in Fig. 5c), A232E, R155H, and R159H (n=3 with 3 technical replicated per experiment; points are expressed as beta ± SE, linear effects model: *P<0.05,**P<0.01; ***P<0.001; ****P<0.0001).

R155H VCP = target: T4, R155H VCP (Mus musculus, UniProt Q01853, R155H); test: MESG-PNP ATPase assay, recombinant R155H VCP; assay type: biochemical; settings: VCP Mutation R155H; replicate values
T4 construct: in the full-length recombinant VCP; His (N); made in house; host or cells: Escherichia coli BL21-CodonPlus (DE3)-RIL
T4 sequence (Q01853 whole entry R155H): as the sequence (Q01853 whole entry) above, with R155H counted along it
Method: as §3, §4

R159H VCP = target: T5, R159H VCP (Mus musculus, UniProt Q01853, R159H); test: MESG-PNP ATPase assay, recombinant R159H VCP; assay type: biochemical; settings: VCP Mutation R159H; replicate values
T5 construct: in the full-length recombinant VCP; His (N); made in house; host or cells: Escherichia coli BL21-CodonPlus (DE3)-RIL
T5 sequence (Q01853 whole entry R159H): as the sequence (Q01853 whole entry) above, with R159H counted along it
Method: as §3, §4

O=C(OCCN(C1=NS(=O)(=O)c2ccccc21)c1ccc(Cl)cc1)c1ccco1 [UP163]
EC50 (recombinant WT VCP [1]; EC50 (μM) (95% CI), WT VCP without UN, 50 nM VCP, 62.5 μM ATP, 2% DMSO): 9 µM | ATP consumed (recombinant WT VCP [1]; 1.56 μM compound): 0.996 nmol and 1.192 nmol and 1.605 nmol | ATP consumed (recombinant WT VCP [1]; 3.13 μM compound): 0.935 nmol and 1.312 nmol and 1.332 nmol | ATP consumed (recombinant WT VCP [1]; 6.25 μM compound): 1.040 nmol and 1.494 nmol and 1.616 nmol | ATP consumed (recombinant WT VCP [1]; 12.5 μM compound): 1.105 nmol and 1.570 nmol and 1.588 nmol | ATP consumed (recombinant WT VCP [1]; 25 μM compound): 1.206 nmol and 1.717 nmol and 1.792 nmol | ATP consumed (recombinant WT VCP [1]; 50 μM compound): 1.416 nmol and 2.232 nmol and 2.160 nmol | ATP consumed (recombinant WT VCP [1]; 100 μM compound): 1.546 nmol and 2.072 nmol and 2.521 nmol | ATP consumed (recombinant WT VCP [1]; 200 μM compound): 1.557 nmol and 2.138 nmol and 2.227 nmol | recombinant WT VCP ATPase activity (recombinant WT VCP [1]; in vitro validation of 106 screen hits): significantly increased | increase of VCP activity (recombinant WT VCP [1]; maximum, WT VCP without UN): 104% | change in EC50 with UN compared to without UN (WT VCP + Ufd1/Nploc4): no change in EC50 | change in maximum percent activity with UN compared to without UN (WT VCP + Ufd1/Nploc4): significantly decreased | EC50 (WT VCP + Ufd1/Nploc4; WT VCP + Ufd1/Nploc4, 1:1 molar ratio): 8.9 µM | ATP consumed (WT VCP + Ufd1/Nploc4; 1.56 μM compound): 1.198 nmol and 1.183 nmol and 1.402 nmol | ATP consumed (WT VCP + Ufd1/Nploc4; 3.13 μM compound): 1.366 nmol and 1.295 nmol and 1.519 nmol | ATP consumed (WT VCP + Ufd1/Nploc4; 6.25 μM compound): 1.504 nmol and 1.416 nmol and 1.656 nmol | ATP consumed (WT VCP + Ufd1/Nploc4; 12.5 μM compound): 1.666 nmol and 1.564 nmol and 1.799 nmol | ATP consumed (WT VCP + Ufd1/Nploc4; 25 μM compound): 1.783 nmol and 1.641 nmol and 1.890 nmol | ATP consumed (WT VCP + Ufd1/Nploc4; 50 μM compound): 1.844 nmol and 1.710 nmol and 1.941 nmol | ATP consumed (WT VCP + Ufd1/Nploc4; 100 μM compound): 1.839 nmol and 1.775 nmol and 1.995 nmol | ATP consumed (WT VCP + Ufd1/Nploc4; 200 μM compound): 1.798 nmol and 1.691 nmol and 2.001 nmol | kcat (nmol Pi / nmol VCP / s) (95% CI) (recombinant WT VCP [2]; 25 μM activator): 0.366 (0.335, 0.401) nmol Pi / nmol VCP / s | increase in kcat (recombinant WT VCP [2]; 25 μM activator, versus DMSO): more than 50% | ATPase activity v0/ET (recombinant WT VCP [2]; [ATP] 62.5 μM): 0.201 nmol Pi / nmol VCP / s and 0.212 nmol Pi / nmol VCP / s and 0.198 nmol Pi / nmol VCP / s | ATPase activity v0/ET (recombinant WT VCP [2]; [ATP] 125 μM): 0.260 nmol Pi / nmol VCP / s and 0.250 nmol Pi / nmol VCP / s and 0.255 nmol Pi / nmol VCP / s | ATPase activity v0/ET (recombinant WT VCP [2]; [ATP] 250 μM): 0.300 nmol Pi / nmol VCP / s and 0.288 nmol Pi / nmol VCP / s and 0.278 nmol Pi / nmol VCP / s | ATPase activity v0/ET (recombinant WT VCP [2]; [ATP] 500 μM): 0.335 nmol Pi / nmol VCP / s and 0.312 nmol Pi / nmol VCP / s and 0.331 nmol Pi / nmol VCP / s | ATPase activity v0/ET (recombinant WT VCP [2]; [ATP] 1000 μM): 0.366 nmol Pi / nmol VCP / s and 0.351 nmol Pi / nmol VCP / s and 0.360 nmol Pi / nmol VCP / s | % activity of 26S proteasome (26S proteasome): 101.6% and 88.7% and 86.5% and 112.7% and 93.3% and 91.5% | Integrated Fluorescence WT (Normalized to CHX) ([3]; 5μM compound with CHX): 1.026 and 0.947 and 1.013 and 0.859 and 0.810 | Integrated Fluorescence WT (Normalized to CHX) ([3]; 20μM compound with CHX): 0.921 and 1.001 and 0.939 and 1.006 and 0.777 and 0.710 | clearance of GFP-TDP-4FL aggregates (integrated fluorescence) ([3]; MG132, then CHX with 5 or 20 μM activator): enhances clearance of TDP-4FL inclusions; also recorded: slightly enhanced clearance | luciferase activity (measured ATP without VCP) (luciferase; 62.5 μM ATP, increasing concentrations of compound): did not inhibit luciferase activity | measured ATP consumed (nmol) without VCP (luciferase; compound 6.25 μM): 3.139 nmol and 3.185 nmol and 3.132 nmol and 3.341 nmol and 3.220 nmol and 3.273 nmol and 3.147 nmol and 3.064 nmol and 3.275 nmol and 3.208 nmol and 3.040 nmol and 3.045 nmol | measured ATP consumed (nmol) without VCP (luciferase; compound 12.5 μM): 3.118 nmol and 3.105 nmol and 3.142 nmol and 3.139 nmol and 3.279 nmol and 3.429 nmol and 3.221 nmol and 3.237 nmol and 3.278 nmol and 3.379 nmol and 3.331 nmol and 3.029 nmol | measured ATP consumed (nmol) without VCP (luciferase; compound 25 μM): 3.141 nmol and 3.208 nmol and 3.280 nmol and 3.310 nmol and 3.135 nmol and 3.015 nmol and 3.257 nmol and 3.266 nmol and 3.329 nmol and 3.083 nmol and 3.153 nmol | measured ATP consumed (nmol) without VCP (luciferase; compound 50 μM): 3.191 nmol and 3.073 nmol and 3.250 nmol and 3.386 nmol and 3.272 nmol and 3.113 nmol and 3.202 nmol and 3.171 nmol and 3.209 nmol and 3.373 nmol and 3.530 nmol and 3.028 nmol | measured ATP consumed (nmol) without VCP (luciferase; compound 100 μM): 3.232 nmol and 3.235 nmol and 3.017 nmol and 3.209 nmol and 3.245 nmol and 3.024 nmol and 3.264 nmol and 3.329 nmol and 3.427 nmol and 3.000 nmol and 3.076 nmol | measured ATP consumed (nmol) without VCP (luciferase; compound 200 μM): 3.190 nmol (2×) and 3.291 nmol and 3.314 nmol and 3.330 nmol and 3.165 nmol and 3.125 nmol and 3.456 nmol and 3.010 nmol and 3.038 nmol and 3.261 nmol and 3.272 nmol | ATPase activity, nmol Pi / nmol VCP / s (A232E VCP): 0.830 nmol Pi / nmol VCP / s and 0.637 nmol Pi / nmol VCP / s and 0.764 nmol Pi / nmol VCP / s | ATPase activity, nmol Pi / nmol VCP / s (R155H VCP): 0.759 nmol Pi / nmol VCP / s and 0.647 nmol Pi / nmol VCP / s and 0.706 nmol Pi / nmol VCP / s | ATPase activity, nmol Pi / nmol VCP / s (R159H VCP): 0.812 nmol Pi / nmol VCP / s and 0.873 nmol Pi / nmol VCP / s and 0.726 nmol Pi / nmol VCP / s

Source: paper PMC11257039, “VCP activator reverses nuclear proteostasis defects and enhances TDP-43 aggregate clearance in multisystem proteinopathy models” (The Journal of Clinical Investigation, 2024)
